Results reported in patent publication US10526327B2, “Histone demethylase inhibitors” (CELGENE QUANTICEL RESEARCH, INC., priority 2013, dated 2020).

How the values were obtained:
JMJD2C = target: T1, JMJD2C (Homo sapiens, UniProt Q9H3R0); test: JMJD2C in vitro enzyme inhibition assay (TR-FRET); format: biochemical
T1 construct: purchased BPS Bioscience 50105
T1 sequence (Q9H3R0 2-372): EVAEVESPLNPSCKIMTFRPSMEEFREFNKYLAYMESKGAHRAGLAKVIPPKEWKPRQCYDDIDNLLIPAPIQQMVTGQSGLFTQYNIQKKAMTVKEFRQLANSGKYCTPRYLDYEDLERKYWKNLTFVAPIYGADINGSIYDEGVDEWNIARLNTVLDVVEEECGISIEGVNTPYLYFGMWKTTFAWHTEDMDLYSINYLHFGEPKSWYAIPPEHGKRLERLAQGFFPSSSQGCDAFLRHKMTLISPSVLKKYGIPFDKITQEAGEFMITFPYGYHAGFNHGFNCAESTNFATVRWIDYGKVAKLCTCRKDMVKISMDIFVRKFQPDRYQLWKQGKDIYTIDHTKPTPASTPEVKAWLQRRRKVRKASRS
Summary of the method: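 Baculovirus-expressed human JMJD2C (AA 2-372) at 0.3 nM demethylated 300 nM biotin-H3K9me3 peptide with 2 μM alpha-ketoglutarate in HEPES pH 7.3 containing ascorbate and Fe(II), 30 min at room temperature. EDTA-stopped product was read by TR-FRET with Eu-anti-H3K9me2 and streptavidin-APC; 665/615 ratios from 11-point dilutions gave IC50.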

Jarid1B = target: T2, Jarid1B (Homo sapiens, UniProt Q9UGL1); test: Jarid1B in vitro enzyme inhibition assay (TR-FRET); format: biochemical
T2 construct: purchased BPS Bioscience or custom made by MolecularThroughput 50121
T2 sequence (Q9UGL1 2-751): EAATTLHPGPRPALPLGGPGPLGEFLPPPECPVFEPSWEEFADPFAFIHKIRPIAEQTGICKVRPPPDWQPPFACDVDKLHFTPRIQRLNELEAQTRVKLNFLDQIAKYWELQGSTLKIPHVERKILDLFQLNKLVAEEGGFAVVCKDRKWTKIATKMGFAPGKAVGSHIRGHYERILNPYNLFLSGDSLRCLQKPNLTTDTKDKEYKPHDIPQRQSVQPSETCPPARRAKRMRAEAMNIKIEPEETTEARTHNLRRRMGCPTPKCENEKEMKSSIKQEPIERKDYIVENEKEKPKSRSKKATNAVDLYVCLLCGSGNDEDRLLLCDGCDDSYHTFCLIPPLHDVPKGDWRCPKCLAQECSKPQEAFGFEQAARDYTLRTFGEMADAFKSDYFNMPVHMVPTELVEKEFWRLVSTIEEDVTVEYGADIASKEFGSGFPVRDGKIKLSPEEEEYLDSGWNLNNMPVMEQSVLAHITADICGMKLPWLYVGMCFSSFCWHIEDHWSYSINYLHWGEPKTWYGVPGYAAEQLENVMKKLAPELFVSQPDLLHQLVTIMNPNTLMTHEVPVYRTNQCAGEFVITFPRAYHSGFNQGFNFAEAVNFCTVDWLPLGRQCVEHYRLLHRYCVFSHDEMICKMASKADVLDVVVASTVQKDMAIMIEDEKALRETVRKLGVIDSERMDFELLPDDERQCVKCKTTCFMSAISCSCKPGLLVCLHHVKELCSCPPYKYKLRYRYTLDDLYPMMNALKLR
Summary of the method: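 Jarid1B (AA 2-751, baculovirus-expressed) at 0.8 nM with 300 nM biotin-H3K4me3 peptide and 2 μM α-ketoglutarate in HEPES pH 7.3 with ascorbate and Fe(II), 30 min at room temperature. Stopped with EDTA; H3K4me1-2 product detected by TR-FRET (665/615 ratio) and IC50 fitted from 11-point dilutions.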

| Structure (SMILES) | IC50 (JMJD2C) [nM] | IC50 (Jarid1B) [nM] |
| --- | --- | --- |
| Cn1cnc(-c2nccc3c(O)nc(Oc4cnn(C5CCOCC5)c4)nc23)c1 [Example 100, 8-(1-methylimidazol-4-yl)-2-[1-(oxan-4-yl)pyrazol-4-yl]oxypyrido[3,4-d]pyrimidin-4-ol] | 100 to 1000 | ≤ 100 |
| Cn1cnc(-c2nccc3c(O)nc(OCc4ccccc4)nc23)c1 [Example 101, 8-(1-methylimidazol-4-yl)-2-phenylmethoxypyrido[3,4-d]pyrimidin-4-ol] | 100 to 1000 | ≤ 100 |
| Cn1cnc(-c2nccc3c(O)nc(OCC4CCOCC4)nc23)c1 [Example 102, 8-(1-methyl-1H-imidazol-4-yl)-2-(oxan-4-ylmethoxy)pyrido[3,4-d]pyrimidin-4-ol] | ≤ 100 | 100 to 1000 |
| Cn1cnc(-c2nccc3c(O)nc(OCC4CCOC4)nc23)c1 (centres unmarked) [Example 103, 8-(1-methyl-1H-imidazol-4-yl)-2-(oxolan-3-ylmethoxy)pyrido[3,4-d]pyrimidin-4-ol] | ≤ 100 | ≤ 100 |
| Cn1cnc(-c2nccc3c(O)nc(OCc4cccc(F)c4)nc23)c1 [Example 104, 2-[(3-fluorophenyl)methoxy]-8-(1-methyl-1H-imidazol-4-yl)pyrido[3,4-d]pyrimidin-4-ol] | ≤ 100 | ≤ 100 |

The next lines start with the values.

| IC50 (JMJD2C) [nM] | IC50 (Jarid1B) [nM] | Structure (SMILES) |
| --- | --- | --- |
| 100 to 1000 | ≤ 100 | Oc1nc(Oc2ccnc(N3CCOCC3)c2)nc2cnccc12 [Example 97, 2-(2-morpholin-4-ylpyridin-4-yl)oxypyrido[3,4-d]pyrimidin-4-ol] |
| 1000 to 10000 | 100 to 1000 | Cn1cnc(-c2nccc3c(O)nc(OCC(C)(C)O)nc23)c1 [Example 98, 2-(2-hydroxy-2-methylpropoxy)-8-(1-methylimidazol-4-yl)pyrido[3,4-d]pyrimidin-4-ol] |
| 100 to 1000 | ≤ 100 | CC(c1ccccc1)n1cc(Oc2nc(O)c3ccncc3n2)cn1 (centres unmarked) [Example 99] |
| ≤ 100 | ≤ 100 | Cn1cnc(-c2nccc3c(O)nc(OCc4ccccc4Cl)nc23)c1 [Example 105, 2-[(2-chlorophenyl)methoxy]-8-(1-methyl-1H-imidazol-4-yl)pyrido[3,4-d]pyrimidin-4-ol] |
| 100 to 1000 | ≤ 100 | Cn1cnc(-c2nccc3c(O)nc(OCc4cccc(Cl)c4Cl)nc23)c1 [Example 106, 2-[(2,3-dichlorophenyl)methoxy]-8-(1-methyl-1H-imidazol-4-yl)pyrido[3,4-d]pyrimidin-4-ol] |
